Measurements from US9920295B2, “Bioreactor for isolation of rare cells and methods of use” (The Trustees of the University of Pennsylvania, priority 2012, dated 2018).

Assays:
[1] = tested on: human-CD41+ platelets in NSG mice; test: In vivo human platelet generation after intratibial transplantation into NSG mice; design: species or system mouse
Description: Eight- to 10-wk-old nonobese diabetic (NOD)/SCID/IL-2Rγ−/− (NSG) mice were obtained and maintained in-house at the Penn Xenograft Core Facility. Before transplantation (˜24 h), mice received a sublethal dose of 320 cGy total body irradiation. Cultured human CD34^+-derived cells (0.5−3×10^5 uncultured BM CD34^+ equivalent) with or without drug treatment was suspended in 20 μL PBS and injected directly into the tibia. Peripheral blood (PB) was then obtained from the transplanted mice via retroorbital bleeding and human platelet quantification was done at indicated times. To calculate human platelet in NSG circulation, the total platelet concentration count was done by Hemavet (Drew Scientific), and 2 μL of PB per staining sample was washed in the presence of PGE1 inhibitor (Sigma) and resuspended in PBS. Cells were incubated with mouse Fc-blocker (BD Biosciences) for 5 min, followed by addition of mouse anti-human CD41-FITC and rat anti-mouse CD41-PE antibodies (eBioscience). After 30 min incubation at room temperature, cells were fixed by addition of 0.5% paraformaldehyde and analyzed by flow cytometry within 2 h. Platelets were gated on based on forward and side scatters, and at least 50,000 events were acquired. Human platelet concentration was obtained by multiplying the total platelet count by the percentage of human CD41-FITC of the total CD41^+ platelets (mouse plus human). Microscopic determination and isotype control with mixing known number of human platelets indicate the threshold detection limit of 0.001%. The total human platelet number in each transplanted NSG mouse was estimated by assuming that the average total mouse blood is ˜1.5 mL (Riches et al., 1973, J Physiol, 228:279-284). All animal experiments were performed in accordance with institutional guidelines approved by the ethical committee from the University of Pennsylvania.

[2] = tested on: BM CD34+-derived cells (CD41+ MK); test: Ploidy analysis of CD34+-derived cells treated with contractility inhibitors (flow cytometry); assay type: cell-based, human; settings: for maximal polyploid cell number: scaled to 10,000 initial cell input
Description: Fresh purified bone marrow (BM)-derived humanCD34^+ cells were obtained from either the Penn Xenograft Core Facility or AllCells. Cells from at least 10 different donors were used in this study. Purity of the samples (>98%) was confirmed by flow cytometry with monoclonal antibody against human CD34 conjugated to phycoerythrin (PE). All experiments were performed in hematopoietic stem cell (HSC) expansion media (StemLine-II; Sigma) supplemented with 1× antibiotics, and the following human recombinant cytokines SCF (100 ng/mL) and Tpo (100 ng/mL). In some occasions, the media was also supplemented by G-CSF (100 ng/mL). All cytokines were purchased from R&D Systems. After cells were cultured for 4 days, they were treated with different doses of cellular contractility inhibitors, including (±)-blebbistatin (EMDBiosciences), reversine, ML-7, and Y-27632 (Sigma) for indicated durations of up to 3 days. Unfortunately, longer exposure to drug proves toxic even to polyploidy cells under the present culture conditions. Cells were then resuspended in PBS/2% FBS medium and subjected to ploidy analysis: cells were stained with CD41-FITC (BD Biosciences) at room temperature for 30 min, followed by Hoechst 33342 at 37° C. for 30 min. Then cells were stained with Annexin-V-PE (BD Biosciences) in the Annexin-V staining medium, followed by addition of 7-AAD. Stained cells were subjected to flow cytometric analysis (LSR-II; BD Biosciences): only viable cells (7-AAD^− and Hoechst 33342^+) were analyzed for ploidy. Cells with the DNA content of 8 N or higher were considered polyploid. To quantify absolute number of polyploid cells, viable cell number was counted before flow cytometry by Trypan blue exclusion, and this number was multiplied by percentages of each DNA compartment and subpopulations. Each multiplied number was then normalized by initial cell input number before drug treatment in culture.

[3] = tested on: MKs; test: Proplatelet extension quantification; assay type: cell-based, human
Description: Three-dimensional collagen gels embedded with cells were prepared as previously published (Rhee et al., 2007, Proc Natl Acad Sci USA, 104:5425-5430). BM-derived cells were added to the collagen solution prepared by neutralizing 2.0 mg/mL collagen-I (BD Biosciences) with HSC expansion media adjusted to appropriate the pH, so that cells could be embedded to the polymerized matrices (1×10^5 cells/mL). Next, 200 μL of this collagen mixture was placed in a well of 24-well plate and incubated at 37° C. 5% CO2 overnight before being formaldehyde-fixed and processed for microscopic analysis. Washing steps were done gently using pipette to minimize disturbance of gels. After completion of staining, matrices were released from the plate by gentle shaking and transferred to glass slides in mounting medium with either a spatula or gentle pipetting.
Cells on coverslips were fixed with 4% paraformaldehyde, followed by permeabilization with 0.5% Triton X-100 in PBS for 15 min and blocking with 1% BSA in PBS for 30 min. Samples were then stained with primary antibodies (1:100 for all antibodies used) overnight at 4° C. After washing, staining with appropriate Alexa-conjugated secondary antibodies (1:400) was performed for 45 min at room temperature. Cells were washed three times with PBS and mounted in ProLong Gold antifade medium (Invitrogen). Samples were then analyzed by fluorescence microscopy. For quantitative analysis, pictures from each experiment were taken under a defined set of exposure times on the same day with 40× objectives. Intensity of labeled NMM-II proteins for each cell was analyzed by ImageJ by subtracting a background, defining a threshold of cell boundary, followed by calculation of mean intensity. At least 10 images from each experiment were analyzed from three independent experiments. For proplatelet quantification, the process length from each cell was measured by manual tracing with ImageJ. Only processes above detection limit (≥1 μm in length from cell body) were considered for statistical analysis.

EC50 ([2]; dose-response, n≥3 donors, read-out: MK polyploid cell number EC50): 7.6 µM
IC50 ([2]; treatment for 3 d, with or without G-CSF, read-out: CD41+ MK and non-MK polyploid cell number IC50): 7.6 µM
SMILES: Cc1ccc2c(c1)C(=O)C1(O)CCN(c3ccccc3)C1=N2 (racemic) [blebbistatin, (±)-blebbistatin]
human plts per transplanted CD41+ cell vs untreated ([1]; Phase-I and Phase-II of circulation): about 4 fold
plt half-life ([1]; Phase-II decay, regardless of drug treatment): ~37 h
in vivo human platelets per transplanted CD41+ cell vs untreated ([1]; cells treated ex vivo 3 d, day 3 posttransplant): about fourfold
drug dose found to be toxic [2]: ~100 µM
enrichment of mature polyploid MKs [2]: ~10 folds
doubling time of polyploid cell generation ([2]; 20 μM): 18.2 h
Ki ([2]; MK polyploidization / progenitor depletion in cells, read-out: inhibition constant Ki): ~7.6 µM
maximal polyploid cell number ([2]; SCF+Tpo CD41+): 278
maximal polyploid cell number ([2]; SCF+Tpo CD41−): 1
maximal polyploid cell number ([2]; SCF+Tpo+G-CSF CD41+): 141
maximal polyploid cell number ([2]; SCF+Tpo+G-CSF CD41−): 352
increase in mean length of proplatelet extensions ([3]; cells grown on plastic): approximately threefold
effect on proplatelet extensions ([3]; cells in 3D collagen gels or on stiff, osteoid-like matrices): no effect
average proplatelet extension velocity ([3]; live imaging): ~1 μm/min
